{"source": "paper PMC4267740", "about": "“Unprecedented Therapeutic Potential with a Combination of A2A/NR2B Receptor Antagonists as Observed in the 6-OHDA Lesioned Rat Model of Parkinson's Disease” (PLoS ONE, 2014)", "key": {"[1]": {"system": "unilateral 6-OHDA-lesioned rats", "test": "Distance traveled in actometers, monotherapy (without L-Dopa)", "format": "in vivo, rat", "details": "Co-101244 1 mg/kg ip", "method": "(§1) To protect norepinephrinergic neurons, animals were administered imipramine HCl (Sigma) 15 minutes before surgery. They were subsequently anesthetized with ketamine (Ceva, 75 mg/kg) and xylazine (Bayer, 10 mg/kg) and placed in stereotaxic frame (David Kopf Instrument). 6-OHDA was injected into the right ascending medial forebrain bundle at the following coordinates (in mm) relative to bregma and surface of the dura, AP = −3.5, ML = −1.5, DV = −8.7. Each rat received one injection of 6-OHDA (4 µg/µl) over a period of 5 minutes (0.5 µl/min) for a total of 10 µg per rat. Animals were monitored for 3 weeks to ensure full recovery and habituation to the environment and experimenters.\n(§2) On day 21 post surgery, all rats were challenged with a small dose of subcutaneously administered apomorphine (Sigma, 0.05 mg/kg). Rats showing more than 90 contralateral rotations (360°) over a 45-minute recording period were included in the study. […] For each experiment, rats were allocated to the different experimental groups in order to get the same mean level of basal activity measured at the apomorphine challenge amongst the different experimental groups.\n(§3) Drug-naïve separate rats were tested individually in clear acrylic chambers (LE8811 IR, Panlab). Locomotion was detected and measured by 16 infrared light-beam sensors located on each side of the enclosure at a height of 3 cm. Sensors were spaced such that the light beams formed a matrix of 15×15 squares over the surface. Activity counts were recorded on a computer and Acti-Track software (Actitrack, Panlab) was used to convert raw data into “distance traveled” and “rearing counts” for analysis as relevant dependent variables.\n(§4) Six different combinations of A2A/NR2B antagonists were tested without L-Dopa. For each combination, there were four different procedures: vehicle only; A2A antagonist followed by vehicle; vehicle followed by the NR2B antagonist and A2A antagonist followed by the NR2B antagonist. The drugs, doses and combinations are described in Table 3. After drug administration, rats were placed in actometers (open-field) for monitoring the general level of motor activity (distance traveled and rearing counts).\n(§5) Before undertaking the study, each A2A and NR2B antagonist was tested individually. The doses were selected on the basis of preliminary dose-response curves performed separately for each drug and submaximal dose (i.e. response observed is not at its maximal level) of each drug was selected for the combination studies. The two drugs were administered separately via an intraperitoneal (ip) injection with a 2-minute interval between the two drugs. Five minutes after the second injection, animals were placed in the testing cage for behavioural recording. Due to formulation and exposure issues, Tozadenant and Radiprodil had to be administered orally and therefore recording was started 60 minutes post dosing at this corresponds to maximum plasma concentrations. Eight drug-naïve animals were used for each of the four procedures; 32 in total for each combination. All behavioral experiments were conducted between 8.00 AM and 2.00 PM at the latest. Preliminary pharmacokinetic assays investigated the plasma and brain disposition of selected drugs administered alone or in combination (ie. Tozadenant/Radiprodil, and Sch-58261/Co-101244; 3 animals per group). Tozadenant and Radiprodil were measured in samples obtained 60 minutes after single oral administration at 30 mg/kg. Sch-58261 and Co-101244 were measured in samples collected 90 min after single intraperitoneal administration at 3 mg/kg.\n(§6) The effects of A2A and NR2B antagonists on the level of motor activity (i.e. distance traveled and rearing counts) were assessed with three-way mixed ANOVA, combining the A2A receptor antagonist (2 levels, vehicle and the A2A drug) and the NR2B antagonist (2 levels, vehicle and the NR2B drug) as between-group factors with the time as within-subjects factor (6 or 9 levels). […]"}, "[2]": {"system": "unilateral 6-OHDA-lesioned rats", "test": "L-Dopa-induced contralateral rotations in rotometers, add-on therapy", "format": "in vivo, rat", "details": "add-on to L-Dopa 25 mg/kg ip, Sch-58261 0.3 mg/kg ip, Co-101244 1 mg/kg ip", "method": "as §1, §2\nThe rats tested one week earlier for general activity (actometers) were once again placed in clear acrylic individual chambers (50×45 cm) with the same treatment (drug and dose) than that previously received plus L-Dopa. Eight chambers were placed on a level, clear glass bottom, held by a robust frame, and were subdivided into four individual test cages of 25×22 cm. A removable acrylic plate served as a lid.\nRotational behaviour was recorded using a home-made computerized system. Rats were fixed in a harness and linked to mechanical sensors connected directly to a computer. Each 360° clock-wise or counter clock-wise turn was automatically recorded for up to 120 minutes at the maximum. Throughout the experiments, rats were allocated to individual test cages.\nFour different combinations were administered as add-on treatment to a low active dose of L-Dopa (25 mg/kg, ip) without any dopa decarboxylase inhibitor to avoid any additional pharmacokinetic interaction. The doses of the compounds were selected on the basis of preliminary dose-response curves performed separately for each drug. To avoid ceiling effect with L-Dopa, only submaximal doses of each drug were selected for testing (as it was done previously for monotherapy). Eight L-Dopa naïve animals were tested for each of the four pharmacological condition: vehicle and L-Dopa (25 mg/kg); A2A antagonist followed by vehicle and L-Dopa; vehicle followed by NR2B antagonist and L-Dopa; A2A antagonist followed by NR2B and L-Dopa. Due to the dominance of the L-Dopa-effect on the lesioned striatum, the unilateral 6-OHDA-lesioned rats rotated after the drugs administration and behavioral activity was recorded in rotometers (i.e. level of contralateral rotations).\nAll drugs were administered i.p. 25 minutes before behavioural recording, except for the Tozadenant and Radiprodil combination which was administered orally 60 minutes before behavioural recording. As Radiprodil was administered orally, L-Dopa was given 45 minutes after the Radiprodil injection whereas for the other combinations L-Dopa was given 15 minutes after the NR2B drug. The drugs, the doses and the combinations given in co-administration to L-Dopa are described in Table 4 .\nThe impact of treatment with A2A or NR2B receptor antagonists, given alone or in combination, on the effect of L-Dopa on contralateral rotations was also analysed with a three-way mixed ANOVA. The ANOVA included the A2A and the NR2B receptor antagonists (both, 2 levels, vehicle and the drug) as between-group factors combined with time (12 levels) as within-subjects factor. […] The ability of the combination to increase and prolong the activity of L-Dopa was also explored. Consequently, drug effects were analyzed for every 10-min time interval. […]"}, "[3]": {"system": "NR2B", "parameters": "method as in PMID 10454475, PMID 10425109", "details": "TEVC recording; cited from earlier work"}, "[4]": {"system": "unilateral 6-OHDA-lesioned rats", "test": "Rearing counts in actometers, monotherapy (without L-Dopa)", "format": "in vivo, rat", "details": "Co-101244 1 mg/kg ip", "method": "as §1, §2, §3, §4, §5, §6"}, "[5]": {"test": "Plasma and brain exposure in satellite lesioned rats", "format": "in vivo, rat", "details": "90 min after dosing, mean ± SD", "method": "Satellite lesioned rats (400–450 g) were anesthetized with isoflurane and sacrificed by exsanguination. Blood samples were collected in EDTA centrifuged 10 min at 3000 rpm at 4°C to obtain plasma and stored at −20°C prior the analysis. Brains were perfused by saline collected and immediately stored at −20°C prior the analysis. Brain samples were added to 4 volumes of water before being homogenized. A structural analog compound was added as internal standard to the samples and proteins were crashed using 8 volumes of acetonitrile. Compounds were analyzed on an API5000 mass spectrometer (ABSciex, Framingham, MA, USA.) equipped with a turbo ion spray source and interfaced with an Agilent 1290 Infinity LC system (Agilent Technologies, Waldbroon, Germany). The mass spectrometer was operated in the positive ionization mode with Multiple Reactions Monitoring used to quantify the various analytes (407 to 292 for Tozadenant; 398 to 109 for Radiprodil, 346 to 105 for Sch-58261 and 342 to 100 for Co-101244). A Waters HSS T3 column (2.1×30 mm, 1.8 µm) was used. The mobile phase consisted of 100% water with 0.1% formic acid (phase A) and 100% acetonitrile with 0.1% formic acid (phase B). The flow rate was 1 mL/min. A linear gradient was performed from 0 to 1 min (95 to 30% phase A), a jump to 90% B in 0.01 min, a hold period of 1.29 min at 90% phase B followed by equilibration at the initial condition was applied before the following injection.\nas §5"}, "[6]": {"system": "NR2B", "details": "In vitro Binding; cited from earlier work"}}, "note": "Where “and” joins values, the source holds several entries; their conditions need not be identical. Equal values may be shown once. Entries after “also recorded” stand apart in the source; their conditions may differ. Read-outs that look alike come from different tables or passages of the source."}
{"smiles": "Cc1ccc(CC2(O)CCN(CCOc3ccc(O)cc3)CC2)cc1", "note": "[Co-101244]", "values": [{"measurement": "Distance traveled, drugs alone vs vehicle, p (Newman-Keuls)", "setting": "[1]; Istradefylline 0.3 mg/kg ip", "result": "not all drugs when administered alone improved distance traveled; also recorded: Not significant"}, {"measurement": "Distance traveled, drugs main effect, p (three-way mixed ANOVA)", "setting": "[1]; Istradefylline 0.3 mg/kg ip", "result": "p<0.05"}, {"measurement": "Distance traveled, drugs × time effect, p (three-way mixed ANOVA)", "setting": "[1]; Istradefylline 0.3 mg/kg ip", "result": "p<0.001"}, {"measurement": "Distance traveled, drugs main effect, p (three-way mixed ANOVA)", "setting": "[1]; Sch-58261 1 mg/kg ip", "result": "p<0.001"}, {"measurement": "Distance traveled, drugs × time effect, p (three-way mixed ANOVA)", "setting": "[1]; Sch-58261 1 mg/kg ip", "result": "p<0.001"}, {"measurement": "Contralateral rotations, drugs main effect, p (three-way mixed ANOVA)", "setting": "[2]", "result": "Not significant"}, {"measurement": "Contralateral rotations, drugs × time effect, p (three-way mixed ANOVA)", "setting": "[2]", "result": "p<0.001"}, {"measurement": "IC50", "setting": "[3]", "result": "0.026 µM and 0.043 µM"}, {"measurement": "Rearing counts, drugs alone vs vehicle, p (Newman-Keuls)", "setting": "[4]; Istradefylline 0.3 mg/kg ip", "result": "Co-101244, not significant"}, {"measurement": "Rearing counts, drugs main effect, p (three-way mixed ANOVA)", "setting": "[4]; Istradefylline 0.3 mg/kg ip", "result": "Not significant"}, {"measurement": "Rearing counts, drugs × time effect, p (three-way mixed ANOVA)", "setting": "[4]; Istradefylline 0.3 mg/kg ip", "result": "p<0.01"}, {"measurement": "Rearing counts, drugs main effect, p (three-way mixed ANOVA)", "setting": "[4]; Sch-58261 1 mg/kg ip", "result": "p<0.001"}, {"measurement": "Rearing counts, drugs × time effect, p (three-way mixed ANOVA)", "setting": "[4]; Sch-58261 1 mg/kg ip", "result": "p<0.001"}, {"measurement": "Plasma concentration", "setting": "[5]; administered alone, ip 3 mg/kg, 3 animals (Co-101244 n = 2)", "result": "54.7 (n = 2) ng/mL"}, {"measurement": "Plasma concentration", "setting": "[5]; administered in combination Sch-58261+Co-101244, both ip 3 mg/kg, 3 animals", "result": "55.4 ± 8.32", "unit": "ng/mL"}, {"measurement": "IC50", "setting": "[6]", "result": 0.004, "unit": "µM"}]}
